Measurements: patent publication US9533985B2, “Sulfonamide derivative and medicinal use thereof” (EA Pharma Co., Ltd., priority 2012, dated 2017)

target: α4β7 integrin (Homo sapiens (Human), UniProt P13612+P26010); experiment: MAdCAM-1/α4β7 integrin binding inhibitory activity evaluation test in the presence of serum (2); format: cell-based; details: RPMI-8866 cells binding to mouse MAdCAM-1/Fc, same manner as Test (3), read-out: α4β7 Rank of activity with serum added
Protocol: The ability of test substances to inhibit the binding of a human B cell line, RPMI-8866, which is known to express α4β7 integrin, to MAdCAM-1 was measured.
To 96-well microtiter plates, recombinant mouse MAdCAM-1/Fc (R&D systems) solution (1 μg/mL) diluted with buffer A (carbonate buffer, pH 9.6) was added at 50 μL/well, followed by incubation at 4° C. overnight. After washing once with PBS, Block Ace (Snow Brand Milk Products Company, Limited) was added at 150 μL/well, followed by incubation at room temperature for 2 hours. After removal, washing was conducted once with PBS.
100 μL of each test substance diluted with a binding buffer (DMEM containing 40 mM HEPES, 0.2% BSA, and 4 mM MnCl2) to various concentrations and 100 μL of RPMI-8866 cells (2×10^6 cell/mL) were added to plates coated with MAdCAM-1/Fc (5×10^5 cells/well) with human serum being contained at a final concentration of 50%, followed by incubation at 30° C. for 15 minutes to 60 minutes. After the cells were bound to each well, unbound cells were removed by washing with PBS. To the plates, buffer C (PBS containing 1.5% Triton X-100) was added at 50 μL/well to lyse the bound RPMI-8866 cells. To 30 μL of the cell lysate, 30 μL of Substrate Buffer (Promega, CytoTox 96 Non-Radioactive Cytotoxicity Assay) was added, and the reaction was allowed to proceed at room temperature in a dark place for 30 minutes. To each well, 30 μL of Stop Solution (Promega, CytoTox 96 Non-Radioactive Cytotoxicity Assay) was added, and the absorbance at 490 nm was measured by using a plate reader. Here, by the obtained absorbance, the activity of the lactate dehydrogenase (LDH) dissolved into the supernatant of each well was detected. In other words, the absorbance was proportional to the number of the RPMI-8866 cells bound to MAdCAM-1 and remaining on the plate. The test was duplicated. The binding ratios of the cells at various concentrations were determined, with the absorbance of a well containing no test substance taken as 100%. Then, the concentration IC50, at which 50% binding inhibition was achieved, was calculated.
The MAdCAM-1/α4β7 integrin binding inhibitory activity in the presence of serum was measured in the same manner as in Test (3) described above. […] The VCAM-1/α4β1 integrin binding inhibitory activity evaluation test and the MAdCAM-1/α4β7 integrin binding inhibitory activity evaluation test were carried out according to the methods described in Tests (1) and (2) described above.

α4β7 integrin, sequence (P13612 34-1032): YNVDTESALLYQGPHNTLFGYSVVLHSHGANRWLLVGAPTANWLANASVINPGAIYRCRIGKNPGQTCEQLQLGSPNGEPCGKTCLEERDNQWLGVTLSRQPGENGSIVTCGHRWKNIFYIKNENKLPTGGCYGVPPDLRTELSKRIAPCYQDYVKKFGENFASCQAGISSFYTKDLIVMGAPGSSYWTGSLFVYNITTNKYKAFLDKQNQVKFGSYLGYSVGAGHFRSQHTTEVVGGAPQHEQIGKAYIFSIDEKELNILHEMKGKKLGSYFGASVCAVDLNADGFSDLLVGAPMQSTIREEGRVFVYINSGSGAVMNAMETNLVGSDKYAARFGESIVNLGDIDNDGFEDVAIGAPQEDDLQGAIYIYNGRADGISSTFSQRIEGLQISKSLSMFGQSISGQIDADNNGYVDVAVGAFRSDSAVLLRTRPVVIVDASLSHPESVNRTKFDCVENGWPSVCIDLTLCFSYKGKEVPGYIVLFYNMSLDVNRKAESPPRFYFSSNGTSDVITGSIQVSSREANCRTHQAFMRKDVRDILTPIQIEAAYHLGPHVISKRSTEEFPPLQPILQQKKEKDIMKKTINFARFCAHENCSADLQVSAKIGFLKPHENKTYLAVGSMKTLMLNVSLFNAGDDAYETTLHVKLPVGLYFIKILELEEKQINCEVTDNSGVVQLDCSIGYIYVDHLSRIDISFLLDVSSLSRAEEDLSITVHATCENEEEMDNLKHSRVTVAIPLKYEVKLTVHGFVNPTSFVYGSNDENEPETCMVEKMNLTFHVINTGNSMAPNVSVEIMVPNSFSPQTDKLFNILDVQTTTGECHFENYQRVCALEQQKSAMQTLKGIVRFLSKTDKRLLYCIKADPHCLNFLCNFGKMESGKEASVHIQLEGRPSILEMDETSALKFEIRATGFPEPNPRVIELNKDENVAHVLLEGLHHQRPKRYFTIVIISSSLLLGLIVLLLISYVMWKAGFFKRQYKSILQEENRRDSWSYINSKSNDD
α4β7 integrin, sequence (P26010 20-798): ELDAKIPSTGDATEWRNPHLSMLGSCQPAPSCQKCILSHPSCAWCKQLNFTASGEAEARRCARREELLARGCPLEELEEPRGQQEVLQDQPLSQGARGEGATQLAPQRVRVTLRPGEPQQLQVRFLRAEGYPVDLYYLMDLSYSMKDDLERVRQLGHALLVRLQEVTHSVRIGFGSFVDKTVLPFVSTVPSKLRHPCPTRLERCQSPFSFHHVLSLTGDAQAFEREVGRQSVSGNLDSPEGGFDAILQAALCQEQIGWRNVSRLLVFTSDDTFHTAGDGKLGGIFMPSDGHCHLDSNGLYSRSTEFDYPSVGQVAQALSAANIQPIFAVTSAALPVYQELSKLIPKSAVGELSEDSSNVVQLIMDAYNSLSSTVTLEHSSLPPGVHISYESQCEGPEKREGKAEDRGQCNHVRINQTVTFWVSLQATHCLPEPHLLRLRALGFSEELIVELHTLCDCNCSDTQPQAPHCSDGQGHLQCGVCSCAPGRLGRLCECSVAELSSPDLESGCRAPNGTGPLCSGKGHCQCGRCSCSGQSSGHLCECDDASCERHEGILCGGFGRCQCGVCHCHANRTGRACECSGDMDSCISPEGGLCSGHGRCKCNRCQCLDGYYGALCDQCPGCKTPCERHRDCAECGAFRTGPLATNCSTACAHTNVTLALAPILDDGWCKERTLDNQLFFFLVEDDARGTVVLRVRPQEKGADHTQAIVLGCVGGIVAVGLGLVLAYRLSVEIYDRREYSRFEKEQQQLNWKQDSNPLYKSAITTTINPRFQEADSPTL

Question: For `Cn1c(=O)n(-c2ccc(C[C@H](NC(=O)c3cc(F)c(NS(=O)(=O)c4ccccc4)cc3F)C(=O)O)nc2)c(=O)c2ccncc21` [Example 137, N-{2,5-Difluoro-4-[(phenylsulfonyl)amino]benzoyl}-3-[5-(1-methyl-2,4-dioxo-1,4-dihydropyrido[3,4-d]pyrimidin-3(2H)-yl)pyridin-2-yl]-L-alanine], which IC50 is on record?
Answer: Its IC50 is 0.05 to 0.2 µM.

Question: How did the IC50 turn out when `Cn1c(=O)n(-c2ccc(C[C@H](NC(=O)c3cc(F)c(NS(=O)(=O)c4ccccn4)cc3F)C(=O)O)nc2)c(=O)c2ccncc21` [Example 138, N-{2,5-Difluoro-4-[(pyridin-2-yl-sulfonyl)amino]benzoyl}-3-[5-(1-methyl-2,4-dioxo-1,4-dihydropyrido[3,4-d]pyrimidin-3(2H)-yl)pyridin-2-yl]-L-alanine] was run?
Answer: The IC50 was 0.05 to 0.2 µM.

Question: For `Cn1c(=O)n(-c2ccc(C[C@H](NC(=O)c3ccc(NS(=O)(=O)c4ccco4)cc3F)C(=O)O)nc2)c(=O)c2ccncc21` [Example 139, N-{2-Fluoro-4-[(2-furylsulfonyl)amino]benzoyl}-3-[5-(1-methyl-2,4-dioxo-1,4-dihydropyrido[3,4-d]pyrimidin-3(2H)-yl)pyridin-2-yl]-L-alanine], which IC50 is on record?
Answer: The IC50 was 0.01 to 0.05 µM.

Question: `Cn1c(=O)n(-c2ccc(C[C@H](NC(=O)c3cc(F)c(NS(=O)(=O)c4ccco4)cc3F)C(=O)O)nc2)c(=O)c2ccncc21` [Example 140, N-{2,5-Difluoro-4-[(2-furylsulfonyl)amino]benzoyl}-3-[5-(1-methyl-2,4-dioxo-1,4-dihydropyrido[3,4-d]pyrimidin-3(2H)-yl)pyridin-2-yl]-L-alanine] was tested. Which IC50 did it give?
Answer: The IC50 was 0.01 to 0.05 µM.

Question: `CC(=O)c1ccc(S(=O)(=O)Nc2cc(F)c(C(=O)N[C@@H](Cc3ccc(-n4c(=O)c5ccncc5n(C)c4=O)cn3)C(=O)O)cc2F)cc1` [Example 141, N-(4-{[(4-Acetylphenyl)sulfonyl]amine}-2,5-difluorobenzoyl)-3-[5-(1-methyl-2,4-dioxo-1,4-dihydropyrido[3,4-d]pyrimidin-3(2H)-yl)pyridin-2-yl]-L-alanine] was tested. Which IC50 did it give?
Answer: Its IC50 is 0.01 to 0.05 µM.

Question: How did the IC50 turn out when `Cn1c(=O)n(-c2ccc(C[C@H](NC(=O)c3ccc(NS(=O)(=O)c4ccccn4)cc3F)C(=O)O)nc2)c(=O)c2ccncc21` [Example 142, N-{2-Fluoro-4-[(pyridin-2-yl-sulfonyl)amino]benzoyl}-3-[5-(1-methyl-2,4-dioxo-1,4-dihydropyrido[3,4-d]pyrimidin-3(2H)-yl)pyridin-2-yl]-L-alanine] was run?
Answer: Its IC50 is 0.01 to 0.05 µM.

Question: Which IC50 does the source give for `COc1ccccc1S(=O)(=O)Nc1cc(F)c(C(=O)N[C@@H](Cc2ccc(-n3c(=O)c4ccncc4n(C)c3=O)cc2)C(=O)O)c(F)c1` [Example 143, N-(2,6-Difluoro-4-{[(2-methoxyphenyl)sulfonyl]amino}benzoyl)-4-(1-methyl-2,4-dioxo-1,4-dihydropyrido[3,4-d]pyrimidin-3(2H)-yl)-L-phenylalanine] here?
Answer: The IC50 was at most 0.01 µM.

Question: How did the IC50 turn out when `Cn1c(=O)n(-c2ccc(C[C@H](NC(=O)c3ccc(NS(=O)(=O)c4ccc5c(c4)C(=O)CC5)cc3F)C(=O)O)nc2)c(=O)c2ccncc21` [Example 144, N-(2-Fluoro-4-{[(3-oxo-2,3-dihydro-1H-inden-5-yl)sulfonyl]amino}benzoyl)-3-[5-(1-methyl-2,4-dioxo-1,4-dihydropyrido[3,4-d]pyrimidin-3(2H)-yl)pyridin-2-yl]-L-alanine] was run?
Answer: The IC50 was 0.05 to 0.2 µM.

Question: Which IC50 does the source give for `COc1ccccc1S(=O)(=O)Nc1cc(F)c(C(=O)N[C@@H](Cc2ccc(-n3c(=O)c4ccncc4n(C)c3=O)cn2)C(=O)O)c(F)c1` [Example 145, N-(2,6-Difluoro-4-{[(2-methoxyphenyl)sulfonyl]amino}benzoyl)-3-[5-(1-methyl-2,4-dioxo-1,4-dihydropyrido[3,4-d]pyrimidin-3(2H)-yl)pyridin-2-yl]-L-alanine] here?
Answer: Its IC50 is at most 0.01 µM.

Question: How did the IC50 turn out when `CCOc1ccccc1S(=O)(=O)Nc1cc(F)c(C(=O)N[C@@H](Cc2ccc(-n3c(=O)c4ccncc4n(C)c3=O)cn2)C(=O)O)c(F)c1` [Example 146, N-(4-{[(2-Ethoxyphenyl)sulfonyl]amino}-2,6-difluorobenzoyl)-3-[5-(1-methyl-2,4-dioxo-1,4-dihydropyrido[3,4-d]pyrimidin-3(2H)-yl)pyridin-2-yl]-L-alanine] was run?
Answer: The IC50 was 0.01 to 0.05 µM.

Question: With `COc1cc2c(=O)n(-c3ccc(C[C@H](NC(=O)c4ccc(NS(=O)(=O)c5ccco5)cc4F)C(=O)O)cc3)c(=O)n(C)c2cn1` [Example 147, N-{2-Fluoro-4-[(2-furylsulfonyl)amino]benzoyl}-4-(6-methoxy-1-methyl-2,4-dioxo-1,4-dihydropyrido[3,4-d]pyrimidin-3(2H)-yl)-L-phenylalanine] as the molecule, how does the IC50 read?
Answer: Its IC50 is 0.01 to 0.05 µM.

Question: For `Cn1c(=O)n(-c2ccc(C[C@H](NC(=O)c3c(F)cc(NS(=O)(=O)c4ccc(-c5ccco5)cc4)cc3F)C(=O)O)nc2)c(=O)c2ccncc21` [Example 148, N-[2,6-Difluoro-4-({[4-(2-furyl)phenyl]sulfonyl}amino)benzoyl]-3-[5-(1-methyl-2,4-dioxo-1,4-dihydropyrido[3,4-d]pyrimidin-3(2H)-yl)pyridin-2-yl]-L-alanine], which IC50 is on record?
Answer: Its IC50 is 0.01 to 0.05 µM.

Question: `Cn1c(=O)n(-c2ccc(C[C@H](NC(=O)c3cc(F)c(NS(=O)(=O)c4ccco4)cc3F)C(=O)O)cc2)c(=O)c2ccncc21` [Example 149, N-{2,5-Difluoro-4-[(2-furylsulfonyl)amino]benzoyl}-4-(1-methyl-2,4-dioxo-1,4-dihydropyrido[3,4-d]pyrimidin-3(2H)-yl)-L-phenylalanine] was tested. Which IC50 did it give?
Answer: The IC50 was 0.01 to 0.05 µM.

Question: `Cn1c(=O)n(-c2ccc(C[C@H](NC(=O)c3cc(F)c(NS(=O)(=O)c4ccco4)cc3F)C(=O)O)cn2)c(=O)c2ccncc21` [Example 150, N-{2,5-Difluoro-4-[(2-furylsulfonyl)amino]benzoyl}-3-[6-(1-methyl-2,4-dioxo-1,4-dihydropyrido[3,4-d]pyrimidin-3(2H)-yl)pyridin-3-yl]-L-alanine] was tested. Which IC50 did it give?
Answer: Its IC50 is 0.01 to 0.05 µM.

Question: For `Cc1ccc(-c2ccc(S(=O)(=O)Nc3cc(F)c(C(=O)N[C@@H](Cc4ccc(-n5c(=O)c6ccncc6n(C)c5=O)cc4)C(=O)O)c(F)c3)nc2)cn1` [Example 151, N-(2,6-Difluoro-4-{[(6′-methyl-3,3′-bipyridin-6-yl)sulfonyl]amino}benzoyl)-4-(1-methyl-2,4-dioxo-1,4-dihydropyrido[3,4-d]pyrimidin-3(2H)-yl)-L-phenylalanine], which IC50 is on record?
Answer: The IC50 was 0.01 to 0.05 µM.

Question: For `CCNC(=O)c1ccc(S(=O)(=O)Nc2cc(F)c(C(=O)N[C@@H](Cc3ccc(-n4c(=O)c5c(ncn5C)n(C)c4=O)cc3)C(=O)O)c(F)c2)cc1` [Example 152, 4-(3,7-Dimethyl-2,6-dioxo-2,3,6,7-tetrahydro-1H-purin-1-yl)-N-{4-[({4-[(ethylamino)carbonyl]phenyl}sulfonyl)amino]-2,6-difluorobenzoyl}-L-phenylalanine], which IC50 is on record?
Answer: Its IC50 is at most 0.01 µM.

Question: For `Cn1cnc2c1c(=O)n(-c1ccc(C[C@H](NC(=O)c3c(F)cc(NS(=O)(=O)c4ccc(-c5ncccn5)cn4)cc3F)C(=O)O)cc1)c(=O)n2C` [Example 153, N-(2,6-Difluoro-4-{[(5-pyrimidin-2-yl-pyridin-2-yl)sulfonyl]amino}benzoyl)-4-(3,7-dimethyl-2,6-dioxo-2,3,6,7-tetrahydro-1H-purin-1-yl)-L-phenylalanine], which IC50 is on record?
Answer: Its IC50 is at most 0.01 µM.

Question: Which IC50 does the source give for `Cn1c(=O)n(-c2ccc(C[C@H](NC(=O)c3ncc(NS(=O)(=O)c4ccc(-c5ncccn5)cn4)cc3F)C(=O)O)cc2)c(=O)c2ccncc21` [Example 154, N-[(3-Fluoro-5-{[(5-pyrimidin-2-yl-pyridin-2-yl)sulfonyl]amino}pyridin-2-yl)carbonyl]-4-(1-methyl-2,4-dioxo-1,4-dihydropyrido[3,4-d]pyrimidin-3(2H)-yl)-L-phenylalanine] here?
Answer: Its IC50 is 0.01 to 0.05 µM.

Question: `CCNC(=O)c1ccc(S(=O)(=O)Nc2cc(F)c(C(=O)N[C@@H](Cc3ccc(-n4c(=O)cc(C)n(C)c4=O)cc3)C(=O)O)c(F)c2)cc1` [Example 155, 4-(3,4-Dimethyl-2,6-dioxo-3,6-dihydropyrimidin-1(2H)-yl)-N-{4-[({4-[(ethylamino)carbonyl]phenyl}sulfonyl)amino]-2,6-difluorobenzoyl}-L-phenylalanine] was tested. Which IC50 did it give?
Answer: Its IC50 is 0.01 to 0.05 µM.

Question: For `CCNC(=O)c1ccc(S(=O)(=O)Nc2cc(F)c(C(=O)N[C@@H](Cc3ccc(-n4c(=O)cc(C(C)C)n(C)c4=O)cc3)C(=O)O)c(F)c2)cc1` [Example 156, N-{4-[({4-[(Ethylamino)carbonyl]phenyl}sulfonyl)amino]-2,6-difluorobenzoyl}-4-(4-isopropyl-3-methyl-2,6-dioxo-3,6-dihydropyrimidin-1(2H)-yl)-L-phenylalanine], which IC50 is on record?
Answer: Its IC50 is 0.01 to 0.05 µM.
